# Measured values as given in US9802960B2 (MILLENNIUM PHARMACEUTICALS, INC., priority 2014, dated 2017).
# Molecular target: Human VPS34 (Homo sapiens (Human), UniProt Q8NEB9)
# Assay: Human VPS34 enzyme assay (Adapta TR-FRET)
# Format: biochemical
# Conditions: compound concentration 1.11 μM
# Chain of Human VPS34 (Q8NEB9 whole entry): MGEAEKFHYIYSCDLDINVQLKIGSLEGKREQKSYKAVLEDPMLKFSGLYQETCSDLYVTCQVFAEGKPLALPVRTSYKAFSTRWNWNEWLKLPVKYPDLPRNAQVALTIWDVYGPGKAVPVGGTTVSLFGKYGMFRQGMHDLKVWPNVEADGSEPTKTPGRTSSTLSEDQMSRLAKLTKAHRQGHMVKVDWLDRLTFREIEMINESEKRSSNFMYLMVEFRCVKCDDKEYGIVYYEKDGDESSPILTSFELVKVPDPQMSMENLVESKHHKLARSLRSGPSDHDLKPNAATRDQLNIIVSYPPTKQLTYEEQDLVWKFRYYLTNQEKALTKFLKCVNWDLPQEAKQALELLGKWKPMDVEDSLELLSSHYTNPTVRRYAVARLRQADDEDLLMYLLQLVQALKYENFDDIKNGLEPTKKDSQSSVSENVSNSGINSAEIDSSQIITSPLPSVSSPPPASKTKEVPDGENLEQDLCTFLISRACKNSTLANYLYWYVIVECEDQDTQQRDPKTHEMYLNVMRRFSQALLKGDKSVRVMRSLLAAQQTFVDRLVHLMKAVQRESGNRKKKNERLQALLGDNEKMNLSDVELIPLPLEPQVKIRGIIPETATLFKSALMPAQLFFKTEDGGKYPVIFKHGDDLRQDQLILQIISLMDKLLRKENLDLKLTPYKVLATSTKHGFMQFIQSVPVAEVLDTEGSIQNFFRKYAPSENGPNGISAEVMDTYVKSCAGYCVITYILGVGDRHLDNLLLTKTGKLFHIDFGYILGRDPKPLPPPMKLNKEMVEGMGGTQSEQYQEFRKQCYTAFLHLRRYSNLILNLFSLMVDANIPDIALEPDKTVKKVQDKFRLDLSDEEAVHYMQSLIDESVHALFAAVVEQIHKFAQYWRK
row,SMILES,Percent Inhibition [%]
1,"CC(=O)Nc1cc(-c2cnc(Cl)c(S(=O)(=O)N[C@H](CO)c3ccccc3)c2)ccn1 [Compound I-330, N-(6-chloro-5-{[(1S)-2-hydroxy-1-phenylethyl]sulfamoyl}-3,4′-bipyridin-2′-yl)acetamide]",>99

# Same assay, conditions: compound concentration 1.11 μM; read-out: Percent Inhibition
row,SMILES,inhibition at 1.11 µM [%]
1,"CC(=O)Nc1cc(-c2cncc(S(=O)(=O)NC3C4CC5CC(C4)CC3C5)c2)ccn1 (centres unmarked) [Compound I-318, N-[5-(adamantan-2-ylsulfamoyl)-3,4′-bipyridin-2′-yl]acetamide]",97
2,"CC(=O)Nc1cc(-c2cnc(C)c(N(CCO)S(=O)(=O)c3ccc(F)cc3F)c2)ccn1 [Compound I-319, N-(5-{[(2,4-difluorophenyl)sulfonyl](2-hydroxyethyl)amino}-6-methyl-3,4′-bipyridin-2′-yl)acetamide]",94
3,"CC(=O)Nc1cc(-c2cncc(N3CCCCS3(=O)=O)c2)ccn1 [Compound I-320, N-[5-(1,1-dioxido-1,2-thiazinan-2-yl)-3,4′-bipyridin-2′-yl]acetamide]",95
4,"CC(=O)Nc1cc(-c2cncc(S(=O)(=O)NCc3ccccc3)c2)ccn1 [Compound I-321, N-[5-(benzylsulfamoyl)-3,4′-bipyridin-2′-yl]acetamide]",> 99
5,"CC(=O)Nc1cc(-c2cnc(C)c(NS(=O)(=O)c3cccc(F)c3Cl)c2)ccn1 [Compound I-322, N-(5-{[(2-chloro-3-fluorophenyl)sulfonyl]amino}-6-methyl-3,4′-bipyridin-2′-yl)acetamide]",96
6,"CC(=O)Nc1cc(-c2cnc(N)c(N3CCCN(C)S3(=O)=O)c2)ccn1 [Compound I-323, N-[6-amino-5-(6-methyl-1,1-dioxido-1,2,6-thiadiazinan-2-yl)-3,4′-bipyridin-2′-yl]acetamide]",73
7,"Cc1ncc(-c2ccnc(NC(=O)OCC3(C)COC3)c2)cc1NS(=O)(=O)c1ccc(F)cc1F [Compound I-324, (3-methyloxetan-3-yl)methyl (5-{[(2,4-difluorophenyl)sulfonyl]amino}-6-methyl-3,4′-bipyridin-2′-yl)carbamate]",> 99
8,"CNC1CN(c2cc(-c3ccnc(NC(C)=O)c3)cnc2C)S(=O)(=O)C1 (centres unmarked) [Compound I-325, N-{6-methyl-5-[4-(methylamino)-1,1-dioxidoisothiazolidin-2-yl]-3,4′-bipyridin-2′-yl}acetamide]",> 99
9,"Cc1ncc(-c2ccnc(NC(=O)OCc3ccn(C)n3)c2)cc1NS(=O)(=O)c1ccc(F)cc1F [Compound I-326, (1-methyl-1H-pyrazol-3-yl)methyl (5-{[(2,4-difluorophenyl)sulfonyl]amino}-6-methyl-3,4′-bipyridin-2′-yl)carbamate]",96
10,"COc1ncc(-c2ccnc(NC(C)=O)c2)cc1S(=O)(=O)Nc1cccc(C(F)(F)F)c1 [Compound I-329, N-(6-methoxy-5-{[3-(trifluoromethyl)phenyl]sulfamoyl}-3,4′-bipyridin-2′-yl)acetamide]",> 99
11,"COc1ncc(-c2ccnc(NC(C)=O)c2)cc1N(C)C(=O)c1ccc(F)cc1F [Compound I-331, N-(2′-acetamido-6-methoxy-3,4′-bipyridin-5-yl)-2,4-difluoro-N-methylbenzamide]",93
12,"COC(=O)Nc1cc(-c2cncc(S(=O)(=O)N3CCOCC3)c2)ccn1 [Compound I-332, methyl[5-(morpholin-4-ylsulfonyl)-3,4′-bipyridin-2′-yl]carbamate]",> 99
13,"CC(=O)Nc1cc(-c2cnc(Cl)c(NS(=O)(=O)c3ccc(C(F)(F)F)cc3Cl)c2C)ccn1 [Compound I-333, N-(6-chloro-5-(2-chloro-4-(trifluoromethyl)phenylsulfonamido)-4-methyl-[3,4′-bipyridin]-2′-yl)acetamide]",> 99
14,"CC(=O)Nc1cc(-c2cnc3c(c2)S(=O)(=O)N[C@@H](c2ccccc2)CO3)ccn1 [Compound I-334, (S)-N-[4-(1,1-dioxido-3-phenyl-3,4-dihydro-2H-pyrido[2,3-b][1,4,5]oxathiazepin-8-yl)pyridin-2-yl]acetamide]",82
15,"CC(=O)Nc1cc(-c2cnc(Cl)c(NS(=O)(=O)c3ccc(C4CC4)cc3F)c2C)ccn1 [Compound I-335, N-(6-chloro-5-{[(4-cyclopropyl-2-fluorophenyl)sulfonyl]amino}-4-methyl-3,4′-bipyridin-2′-yl)acetamide]",92
16,"Cc1nccc(Nc2cc(-c3cncc(C(C)Oc4ccccc4Cl)c3)ccn2)n1 (centres unmarked) [Compound I-336, 5-[1-(2-chlorophenoxy)ethyl]-N-(2-methylpyrimidin-4-yl)-3,4′-bipyridin-2′-amine]",96
17,"CC(=O)Nc1cc(-c2cnc(N)c(N3CCCC3=O)c2)ccn1 [Compound I-337, N-[6-amino-5-(2-oxopyrrolidin-1-yl)-3,4′-bipyridin-2′-yl]acetamide]",52
18,"CC(=O)Nc1cc(-c2cncc(S(=O)(=O)NC3CC3)c2)ccn1 [Compound I-338, N-[5-(cyclopropylsulfamoyl)-3,4′-bipyridin-2′-yl]acetamide]",> 99

row,SMILES,inhibition at 1.11 µM [%]
1,"CC(=O)Nc1cc(-c2cnc(C)c(NS(=O)(=O)c3cccc(C)c3F)c2)ccn1 [Compound I-339, N-(5-{[(2-fluoro-3-methylphenyl)sulfonyl]amino}-6-methyl-3,4′-bipyridin-2′-yl)acetamide]",98
2,"CC(=O)Nc1cc(-c2cc(NS(=O)(=O)c3ccc(F)cc3F)c3ncnn3c2)ccn1 [Compound I-340, N-[4-(8-{[(2,4-difluorophenyl)sulfonyl]amino}[1,2,4]triazolo[1,5-a]pyridin-6-yl)pyridin-2-yl]acetamide]",91
3,"CC(=O)Nc1cc(-c2cnc(C)c(N3CCCN(C)S3(=O)=O)c2)ccn1 [Compound I-343, N[6-methyl-5-(6-methyl-1,1-dioxido-1,2,6-thiadiazinan-2-yl)-3,4′-bipyridin-2′-yl]acetamide]",> 99
4,"COc1ncc(-c2ccnc(NC(C)=O)c2)cc1S(=O)(=O)Nc1ccc(Cl)cc1Cl [Compound I-344, N-{5-[(2,4-dichlorophenyl)sulfamoyl]-6-methoxy-3,4′-bipyridin-2′-yl}acetamide]",> 99
5,"Cc1nccc(Nc2cc(-c3cnc(C)c(C(=O)N(C)c4ccc(F)cc4F)c3)ccn2)n1 [Compound I-346, N-(2,4-difluorophenyl)-N,6-dimethyl-2′-[(2-methylpyrimidin-4-yl)amino]-3,4′-bipyridine-5-carboxamide]",95
6,"COc1ncc(-c2ccnc(NC(C)=O)c2)cc1NC(=O)c1ccc(F)cc1F [Compound I-347, N-(2′-acetamido-6-methoxy-3,4′-bipyridin-5-yl)-2,4-difluorobenzamide]",22
7,"CC(=O)Nc1cc(-c2cncc(NS(=O)(=O)N(C)C)c2)ccn1 [Compound I-348, N-{5-[(dimethylsulfamoyl)amino]-3,4′-bipyridin-2′-yl}acetamide]",> 99
8,"Cc1nccc(Nc2cc(-c3cncc(C(C)OCc4ccccn4)c3)ccn2)n1 (centres unmarked) [Compound I-349, N-(2-methylpyrimidin-4-yl)-5-[1-(pyridin-2-ylmethoxy)ethyl]-3,4′-bipyridin-2′-amine]",94
9,"CCCCN(CCCC)S(=O)(=O)Nc1cc(-c2ccnc(NC(C)=O)c2)cnc1C [Compound I-350, N-{5-[(dibutylsulfamoyl)amino]-6-methyl-3,4′-bipyridin-2′-yl}acetamide]",> 99
10,"CC(=O)Nc1cc(-c2cnc(C)c(N3CCNS3(=O)=O)c2)ccn1 [Compound I-352, N-[5-(1,1-dioxido-1,2,5-thiadiazolidin-2-yl)-6-methyl-3,4′-bipyridin-2′-yl]acetamide]",92
11,"CC(=O)Nc1cc(-c2cnc(C)c(S(=O)(=O)Nc3ccc(F)cc3F)c2)ccn1 [Compound I-353, N-(5-(N-(2,4-difluorophenyl)sulfamoyl)-6-methyl-[3,4′-bipyridin]-2′-yl)acetamide]",> 99
12,"CC(=O)Nc1cc(-c2cnc(Cl)c(NS(=O)(=O)c3c(Cl)cccc3Cl)c2C)ccn1 [Compound I-354, N-(6-chloro-5-{[(2,6-dichlorophenyl)sulfonyl]amino}-4-methyl-3,4′-bipyridin-2′-yl)acetamide]",98
13,"Cc1c(-c2ccnc(Nc3ccnc(C4CC4)n3)c2)cnc(Cl)c1N [Compound I-355, 6-chloro-N~2~′-(2-cyclopropylpyrimidin-4-yl)-4-methyl-3,4′-bipyridine-2′,5-diamine]",91
14,"CC(=O)Nc1cc(-c2cnc(C)c(NS(=O)(=O)c3ccc(C#N)cc3F)c2)ccn1 [Compound I-356, N-(5-{[(4-cyano-2-fluorophenyl)sulfonyl]amino}-6-methyl-3,4′-bipyridin-2′-yl)acetamide]",> 99
15,"CC(=O)Nc1cc(-c2cnc(C)c(N3CC(NCc4ccccc4)CS3(=O)=O)c2)ccn1 (centres unmarked) [Compound I-357, N-{5-[4-(benzylamino)-1,1-dioxidoisothiazolidin-2-yl]-6-methyl-3,4′-bipyridin-2′-yl}acetamide]",> 99
16,"COc1ncc(-c2ccnc(NC(C)=O)c2)cc1S(=O)(=O)Nc1cc(F)ccc1F [Compound I-358, N-{5-[(2,5-difluorophenyl)sulfamoyl]-6-methoxy-3,4′-bipyridin-2′-yl}acetamide]",> 99
17,"CC(=O)Nc1cc(-c2cnc(C)c(OS(=O)(=O)N(C)C)c2)ccn1 [Compound I-359, 2′-acetamido-6-methyl-3,4′-bipyridin-5-yl dimethylsulfamate]",> 99
18,"Cc1c(-c2ccnc(Nc3ccnc(C4CC4)n3)c2)cnc(Cl)c1C(=O)N1CCC1 [Compound I-361, azetidin-1-yl(6-chloro-2′-((2-cyclopropylpyrimidin-4-yl)amino)-4-methyl-[3,4′-bipyridin]-5-yl)methanone]",90

# Same assay, conditions: read-out: Percent Inhibition
row,SMILES,inhibition at 1.11 µM [%]
1,"CC(=O)Nc1cc(-c2cnc(C)c(NS(=O)(=O)N3CCCCCC3)c2)ccn1 [Compound I-341, N-{5-[(azepan-1-ylsulfonyl)amino]-6-methyl-3,4′-bipyridin-2′-yl}acetamide]",> 99
